Measured values: ChEMBL document CHEMBL1128787, “Design of a new selective cysteine protease inactivator and its mechanistic implications” (Bioorg Med Chem Lett, 1995)

What was measured:
[1] = target: T1, Cathepsin B (Homo sapiens, UniProt P07858); assay: Kinetic parameter (Ki mM) was evaluated for the inactivation of cathepsin B
[2] = target: T2, Papain (Carica papaya, UniProt P00784); assay: Kinetic parameter (Ki 1/min) was evaluated for the inactivation of papain
T2 sequence (P00784 whole entry): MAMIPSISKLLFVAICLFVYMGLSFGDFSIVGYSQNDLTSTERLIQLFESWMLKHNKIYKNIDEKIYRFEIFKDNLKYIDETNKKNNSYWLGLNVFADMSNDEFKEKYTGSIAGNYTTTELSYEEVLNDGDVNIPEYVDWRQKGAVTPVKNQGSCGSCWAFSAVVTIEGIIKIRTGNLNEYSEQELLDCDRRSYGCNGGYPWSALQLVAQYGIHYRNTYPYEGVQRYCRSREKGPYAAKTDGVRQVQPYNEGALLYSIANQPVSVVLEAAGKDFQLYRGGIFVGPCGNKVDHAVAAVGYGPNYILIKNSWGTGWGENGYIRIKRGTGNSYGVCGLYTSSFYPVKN

[3] = target: T2, Papain; assay: Kinetic parameter (Ki mM) was evaluated for the inactivation of papain
[4] = target: T1, Cathepsin B; assay: Kinetic parameter (kinact 1/min) was evaluated for the inactivation of cathepsin B

Ki [1]: 367 µM
Ki [2]: 0.208 min⁻¹
Ki [3]: 574 µM
kinact [4]: 0.087 min⁻¹
Structure (SMILES): O=C(N[C@@H](Cc1ccccc1)[C@H]1CO1)OCc1ccccc1
